The values below are quoted from earlier work in US20050090660A1, “2'-deoxy-L-nucleosides” (priority 1999, published 2005).

Data set [1] deals with HBV. Particulars: HBV patients, two and four week courses.
The test system of data set [2] is HIV. Particulars: specificity versus HBV.
Data set [3] has as its system uninfected HepG2 cells.
Data set [4] has as its system mitochondrial DNA synthesis and lactic acid production.
The target in data set [5] is T1, polymerase γ (Homo sapiens, UniProt P54098).
T1 sequence (P54098 1-1239): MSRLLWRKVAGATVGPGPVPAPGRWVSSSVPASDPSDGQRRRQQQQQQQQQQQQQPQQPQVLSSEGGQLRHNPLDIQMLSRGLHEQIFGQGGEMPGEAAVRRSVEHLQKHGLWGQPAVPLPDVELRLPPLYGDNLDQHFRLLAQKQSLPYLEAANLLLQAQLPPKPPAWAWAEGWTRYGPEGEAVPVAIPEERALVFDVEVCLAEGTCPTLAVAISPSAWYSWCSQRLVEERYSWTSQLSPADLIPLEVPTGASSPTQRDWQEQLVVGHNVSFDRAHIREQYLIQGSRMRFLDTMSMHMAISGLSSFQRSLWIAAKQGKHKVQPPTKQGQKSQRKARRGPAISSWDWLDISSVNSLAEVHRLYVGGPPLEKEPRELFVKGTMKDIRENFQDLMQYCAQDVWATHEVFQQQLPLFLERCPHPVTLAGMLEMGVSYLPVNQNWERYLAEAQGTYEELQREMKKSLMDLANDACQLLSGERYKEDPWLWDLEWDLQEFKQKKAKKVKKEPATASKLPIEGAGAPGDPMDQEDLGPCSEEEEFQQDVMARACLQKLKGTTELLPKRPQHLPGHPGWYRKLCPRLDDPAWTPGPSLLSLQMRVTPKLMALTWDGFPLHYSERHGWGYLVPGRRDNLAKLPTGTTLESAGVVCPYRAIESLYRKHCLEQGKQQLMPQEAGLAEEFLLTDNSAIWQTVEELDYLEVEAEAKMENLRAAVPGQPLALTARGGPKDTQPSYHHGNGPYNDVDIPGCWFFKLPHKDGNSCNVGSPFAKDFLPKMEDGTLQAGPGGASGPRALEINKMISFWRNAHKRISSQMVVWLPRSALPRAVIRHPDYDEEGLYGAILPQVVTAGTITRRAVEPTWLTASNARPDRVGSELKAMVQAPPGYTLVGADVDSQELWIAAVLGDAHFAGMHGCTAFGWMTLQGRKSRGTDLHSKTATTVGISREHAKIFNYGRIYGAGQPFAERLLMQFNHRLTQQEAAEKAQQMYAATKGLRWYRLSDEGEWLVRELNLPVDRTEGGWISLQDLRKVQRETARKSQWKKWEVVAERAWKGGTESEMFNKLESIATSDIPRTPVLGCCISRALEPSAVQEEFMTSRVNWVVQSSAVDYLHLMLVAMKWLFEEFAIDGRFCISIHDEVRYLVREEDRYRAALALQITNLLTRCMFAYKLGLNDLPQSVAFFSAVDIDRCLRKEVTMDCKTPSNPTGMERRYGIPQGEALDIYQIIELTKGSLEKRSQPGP
Particulars: polymerase responsible for mitochondrial DNA chain elongation.

Data set [6] deals with hepatoma cell lines.

Turning to `O=c1[nH]c(=O)n([C@@H]2O[C@H](CO)[C@@H](O)[C@@H]2F)cc1I` [FIAU], the “patients who died from hepatic failure” value (of the 7 patients with delayed hepatotoxicity, trial with 15 patients) was 5. The “patients with delayed hepatotoxicity” value (prolonged treatment trial with 15 patients) is reported as 7 patients. Further, the “suppression of serum HBV DNA levels” value in data set [1] is ≤ 95%.
Turning to `Cc1cn([C@@H]2C[C@@H](O)[C@H](CO)O2)c(=O)[nH]c1=O` [L-dThd, 2′-Deoxy-β-L-thymidine], the “activity against HIV” value in data set [2] was “not HIV”. Moreover, the IC50 in data set [3] was > 200 µM. Besides, in data set [4], the “effect on lactic acid production” value is listed as “no effect” and the “effect on mitochondrial DNA synthesis” value is given as “no effect”. Besides, in data set [5], the “substrate activity for polymerase γ” value was “little, if any”.
For `Cc1cn([C@H]2O[C@@H](CO)[C@H](O)[C@H]2F)c(=O)[nH]c1=O` [L-FMAU], in data set [6], the lactic acid production result is given as “no significant”.
As to `Nc1ccn([C@@H]2C[C@@H](O)[C@H](CO)O2)c(=O)n1` [L-dCyd, 2′-deoxy-β-L-cytidine], in data set [2], the “activity against HIV” value is reported as “not HIV”. For the same molecule, in data set [3], the IC50 was > 200 µM. Moreover, in data set [4], the “effect on lactic acid production” value is “no effect” and the “effect on mitochondrial DNA synthesis” value was “no effect”. For the same molecule, in data set [5], the “substrate activity for polymerase γ” value is reported as “little, if any”.
Take `Nc1ncnc2c1ncn2[C@@H]1C[C@@H](O)[C@H](CO)O1` [L-dAdo, 2′-deoxy-β-L-adenosine]: in data set [2], the “activity against HIV” value is “not HIV”. In data set [3] (treated at up to 100 μM), the “morphological changes in HepG2 cells” value was “no morphological changes”. Further, in data set [4], the “effect on lactic acid production” value is on record as “no effect” and the “effect on mitochondrial DNA synthesis” value is on record as “no effect”. In addition, in data set [5], the “substrate activity for polymerase γ” value is recorded as “little, if any”.

The IC50 is the concentration needed to halve the response being measured.
